Source: ChEMBL document CHEMBL1135965, “A novel dicyanotriterpenoid, 2-cyano-3,12-dioxooleana-1,9(11)-dien-28-onitrile, active at picomolar concentrations for inhibition of nitric oxide production” (Bioorg Med Chem Lett, 2002)

Species on record: Mus musculus
Test: Inhibitory activity against production of nitric oxide induced by interferon gamma in mouse macrophages
Assay type: functional, organism-based

Which IC50 does the source give for `CCOC(=O)[C@]12CCC(C)(C)CC1C1C(=O)C=C3[C@@]4(C)C=C(C(=O)O)C(=O)C(C)(C)[C@@H]4CC[C@@]3(C)[C@]1(C)CC2` (stereo not given in full) here?
The IC50 was 7.93 nM.

Which IC50 does the source give for `CC1(C)CC[C@]2(C(=O)N3CCC(N4CCCCC4)CC3)CC[C@]3(C)C(C(=O)C=C4[C@@]5(C)C=C(C#N)C(=O)C(C)(C)[C@@H]5CC[C@]43C)C2C1` (stereo not given in full) here?
Its IC50 is 1 nM.

Which IC50 does the source give for `CCCN(CCC)C(=O)[C@]12CCC(C)(C)CC1C1C(=O)C=C3[C@@]4(C)C=C(C#N)C(=O)C(C)(C)[C@@H]4CC[C@@]3(C)[C@]1(C)CC2` (stereo not given in full) here?
The IC50 was 32.9 nM.

With `COC(=O)[C@]12CCC(C)(C)CC1C1C(=O)C=C3[C@@]4(C)C=C(C(=O)O)C(=O)C(C)(C)[C@@H]4CC[C@@]3(C)[C@]1(C)CC2` (stereo not given in full) as the compound, how does the IC50 read?
The IC50 was 9.55 nM.

With `CC1(C)CC[C@]2(C(=O)N3CCCC3)CC[C@]3(C)C(C(=O)C=C4[C@@]5(C)C=C(C#N)C(=O)C(C)(C)[C@@H]5CC[C@]43C)C2C1` (stereo not given in full) as the compound, how does the IC50 read?
Its IC50 is 0.8 nM.

With `CC1(C)CC[C@]2(C(=O)OCc3ccccc3)CC[C@]3(C)C(C(=O)C=C4[C@@]5(C)C=C(C#N)C(=O)C(C)(C)[C@@H]5CC[C@]43C)C2C1` (stereo not given in full) as the compound, how does the IC50 read?
Its IC50 is 4.35 nM.

Which IC50 does the source give for `CC1(C)CC[C@]2(C#N)CC[C@]3(C)C(C(=O)C=C4[C@@]5(C)C=C(C#N)C(=O)C(C)(C)[C@@H]5CC[C@]43C)C2C1` (stereo not given in full) [CDDO-CN] here?
Its IC50 is 0.0035 nM.

How did the IC50 turn out when `CC1(C)CC[C@]2(C(=O)N3CCOCC3)CC[C@]3(C)C(C(=O)C=C4[C@@]5(C)C=C(C#N)C(=O)C(C)(C)[C@@H]5CC[C@]43C)C2C1` (stereo not given in full) was run?
The IC50 was 2.4 nM.

`CC1(C)CC[C@]2(C(=O)NCc3ccccc3)CC[C@]3(C)C(C(=O)C=C4[C@@]5(C)C=C(C#N)C(=O)C(C)(C)[C@@H]5CC[C@]43C)C2C1` (stereo not given in full) was tested. Which IC50 did it give?
The IC50 was 9.2 nM.

With `CC1(C)CC[C@]2(C(=O)O)CC[C@]3(C)[C@H](C(=O)C=C4[C@@]5(C)C=C(C#N)C(=O)C(C)(C)[C@@H]5CC[C@]43C)[C@@H]2C1` [BARDOXOLONE] as the compound, how does the IC50 read?
The IC50 was 0.44 nM.

How did the IC50 turn out when `C=CCOC(=O)[C@]12CCC(C)(C)CC1C1C(=O)C=C3[C@@]4(C)C=C(C#N)C(=O)C(C)(C)[C@@H]4CC[C@@]3(C)[C@]1(C)CC2` (stereo not given in full) was run?
The IC50 was 1.33 nM.

With `COC(=O)[C@]12CCC(C)(C)C[C@H]1[C@H]1C(=O)C=C3[C@@]4(C)C=C(C#N)C(=O)C(C)(C)[C@@H]4CC[C@@]3(C)[C@]1(C)CC2` [BARDOXOLONE METHYL] as the compound, how does the IC50 read?
The IC50 was 0.11 nM.

With `CC1(C)CC[C@]2(C(N)=O)CC[C@]3(C)C(C(=O)C=C4[C@@]5(C)C=C(C#N)C(=O)C(C)(C)[C@@H]5CC[C@]43C)C2C1` (stereo not given in full) as the compound, how does the IC50 read?
Its IC50 is 0.098 nM.

With `CC(=O)OC[C@H]1O[C@@H](OC(=O)[C@]23CCC(C)(C)CC2C2C(=O)C=C4[C@@]5(C)C=C(C#N)C(=O)C(C)(C)[C@@H]5CC[C@@]4(C)[C@]2(C)CC3)[C@H](OC(C)=O)[C@H](OC(C)=O)[C@@H]1OC(C)=O` (stereo not given in full) as the compound, how does the IC50 read?
The IC50 was 0.07 nM.

`CC1(C)CC[C@]2(C(=O)n3cccn3)CC[C@]3(C)C(C(=O)C=C4[C@@]5(C)C=C(C#N)C(=O)C(C)(C)[C@@H]5CC[C@]43C)C2C1` (stereo not given in full) was tested. Which IC50 did it give?
The IC50 was 12 nM.

For `CC1(C)CC[C@]2(C(=O)n3ccnc3)CC[C@]3(C)[C@H](C(=O)C=C4[C@@]5(C)C=C(C#N)C(=O)C(C)(C)[C@@H]5CC[C@]43C)[C@@H]2C1`, which IC50 is on record?
The IC50 was 0.014 nM.

With `CCCCCCCCOC(=O)[C@]12CCC(C)(C)CC1C1C(=O)C=C3[C@@]4(C)C=C(C#N)C(=O)C(C)(C)[C@@H]4CC[C@@]3(C)[C@]1(C)CC2` (stereo not given in full) as the compound, how does the IC50 read?
The IC50 was 60.4 nM.

How did the IC50 turn out when `CC1(C)CC[C@]2(C(=O)Nc3ccccc3)CC[C@]3(C)C(C(=O)C=C4[C@@]5(C)C=C(C#N)C(=O)C(C)(C)[C@@H]5CC[C@]43C)C2C1` (stereo not given in full) was run?
Its IC50 is 28.6 nM.

How did the IC50 turn out when `CC1(C)CC[C@]2(C(=O)O[C@@H]3O[C@H](CO)[C@@H](O)[C@H](O)[C@H]3O)CC[C@]3(C)C(C(=O)C=C4[C@@]5(C)C=C(C#N)C(=O)C(C)(C)[C@@H]5CC[C@]43C)C2C1` (stereo not given in full) was run?
The IC50 was 10.1 nM.

How did the IC50 turn out when `CCCNC(=O)[C@]12CCC(C)(C)CC1C1C(=O)C=C3[C@@]4(C)C=C(C#N)C(=O)C(C)(C)[C@@H]4CC[C@@]3(C)[C@]1(C)CC2` (stereo not given in full) was run?
The IC50 was 1.5 nM.

For `CC1(C)CC[C@]2(C(=O)NN)CC[C@]3(C)C(C(=O)C=C4[C@@]5(C)C=C(C#N)C(=O)C(C)(C)[C@@H]5CC[C@]43C)C2C1` (stereo not given in full), which IC50 is on record?
The IC50 was 0.26 nM.

For `CC1(C)CC[C@]2(C(=O)OCC3CC3)CC[C@]3(C)C(C(=O)C=C4[C@@]5(C)C=C(C#N)C(=O)C(C)(C)[C@@H]5CC[C@]43C)C2C1` (stereo not given in full), which IC50 is on record?
The IC50 was 4.45 nM.

For `CCCCCCNC(=O)[C@]12CCC(C)(C)CC1C1C(=O)C=C3[C@@]4(C)C=C(C#N)C(=O)C(C)(C)[C@@H]4CC[C@@]3(C)[C@]1(C)CC2` (stereo not given in full), which IC50 is on record?
Its IC50 is 14.9 nM.

How did the IC50 turn out when `CC1(C)CC[C@]2(C#N)CC[C@]3(C)C(C(=O)C=C4[C@@]5(C)C=C(C(=O)O)C(=O)C(C)(C)[C@@H]5CC[C@]43C)C2C1` (stereo not given in full) was run?
Its IC50 is 1.68 nM.

Which IC50 does the source give for `CC1(C)CC[C@]2(C(=O)N3CCCCC3)CC[C@]3(C)C(C(=O)C=C4[C@@]5(C)C=C(C#N)C(=O)C(C)(C)[C@@H]5CC[C@]43C)C2C1` (stereo not given in full) here?
The IC50 was 0.95 nM.

How did the IC50 turn out when `CNC(=O)[C@]12CCC(C)(C)CC1C1C(=O)C=C3[C@@]4(C)C=C(C#N)C(=O)C(C)(C)[C@@H]4CC[C@@]3(C)[C@]1(C)CC2` (stereo not given in full) was run?
Its IC50 is 0.58 nM.

`CC1(C)CC[C@]2(C(=O)O)CC[C@]3(C)C(=CC[C@@H]4[C@@]5(C)CC[C@H](O)C(C)(C)[C@@H]5CC[C@]43C)[C@@H]2C1` [OLEANOLIC_ACID] was tested. Which IC50 did it give?
The IC50 was > 40000 nM.

`CCOC(=O)[C@]12CCC(C)(C)CC1C1C(=O)C=C3[C@@]4(C)C=C(C#N)C(=O)C(C)(C)[C@@H]4CC[C@@]3(C)[C@]1(C)CC2` (stereo not given in full) was tested. Which IC50 did it give?
The IC50 was 0.8 nM.

How did the IC50 turn out when `CN(C)C(=O)[C@]12CCC(C)(C)CC1C1C(=O)C=C3[C@@]4(C)C=C(C#N)C(=O)C(C)(C)[C@@H]4CC[C@@]3(C)[C@]1(C)CC2` (stereo not given in full) was run?
Its IC50 is 1.55 nM.

Which IC50 does the source give for `CCCCOC(=O)[C@]12CCC(C)(C)CC1C1C(=O)C=C3[C@@]4(C)C=C(C#N)C(=O)C(C)(C)[C@@H]4CC[C@@]3(C)[C@]1(C)CC2` (stereo not given in full) here?
The IC50 was 6.65 nM.
